Consider two compounds from patent US10285967B2, “Monoacylglycerols for use in conjunction with a lipase inhibitor and/or diets low in fat and/or calories” (NESTEC S.A., priority 2013, dated 2019).

Series [1] is described as follows: lipid maldigestion or malabsorption rat model (XENICAL-induced), EPA level in red blood cell lipids. It is filed as in vivo. Conditions: FIG. 2; for level of EPA incorporated in red blood cells: rats, day 7, with XENICAL (ORLISTAT). The protocol:
The concept was tested in a lipid maldigestion or malabsorption rat model. The maldigestion or malabsorption condition was obtained using XENICAL® (ORLISTAT), a pancreatic and gastric lipases inhibitor (tetrahydrolipstatin; see FIG. 7). Rats were fed during 21 days with long-chain polyunsaturated fatty acid (LC-PUFA) supplements containing mainly eicosapentaenoic (EPA) acid. Fish oil was used as a source of triacylglycerols, and different EPA glycerides were evaluated. XENICAL® (ORLISTAT) was given at a level sufficient to decrease lipid absorption by 40%. A group receiving fish oil without XENICAL® (ORLISTAT) was used as a positive control. At different time intervals (D3, D7, D14 and D21), the fatty acid profiles of red blood cell and plasma lipids were determined. At the end of the experiment, the fatty acid profiles of different tissues were determined.
The main objective was to follow the level of EPA in red blood cell and plasma lipids. The main comparison evaluated was the difference in EPA level between the group receiving EPA-containing sn-1(3) MAG (FIG. 1) in combination with XENICAL® (ORLISTAT) and the […] (fish oil+XENICAL® (ORLISTAT)).
This comparison corroborates the validity of the model.

Series [2] can be described thus: clinical study of EPA delivery under lipid maldigestion induced by XENICAL (ORLISTAT). It is filed as in vivo, human. On the procedure: This clinical study compared the efficacy of sn-1(3) MAG and fish oil (TAG) in delivering EPA in humans under lipid maldigestion conditions induced by XENICAL® (ORLISTAT). The comparison was tested in volunteers having a BMI of 37-40 kg/m2 and treated with XENICAL® (ORLISTAT) to induce lipid maldigestion or not treated with XENICAL® (ORLISTAT). The primary objective was to assess accretion of EPA in erythrocytes over 21 days when consumed as fish oil (TAG) or sn-1(3) MAG. The secondary objectives were to assess accretion of EPA in plasma over 21 days and also to assess the pharmacokinetics of EPA after an acute dose either in the form of sn-1(3) MAG or TAG (AUC in chylomicrons over 10 hours postprandial).

`CC/C=C\C/C=C\C/C=C\C/C=C\C/C=C\CCCC(=O)OCC(O)CO` (stereo not drawn) [sn-1(3) MAG, sn-1(3)-monoeicosapentaenoylglycerol]: the “level of EPA incorporated in red blood cells” value is listed as “statistically higher” in series [1] (compared with fish oil + XENICAL group, all P values lower than 0.05) and “even higher than the fish oil group” in series [1] (compared with fish oil group without XENICAL). The “carrier for EPA compared with fish oil (TAG)” value in series [2] (obese subjects treated with XENICAL (ORLISTAT)) is listed as “better carrier for EPA than fish oil”. Further, the “chronic effect: accretion of EPA in erythrocytes after 21 days” value in series [2] (obese volunteers, with XENICAL (ORLISTAT), compared with fish oil + XENICAL, p=0.0001, FIG. 5) is “statistically significant”. Besides, the “chronic effect: accretion of EPA in plasma after 21 days” value in series [2] (obese volunteers, with XENICAL (ORLISTAT), relative to fish oil + XENICAL, p=0.0003, FIG. 6) is “statistically significant”.

Take `CCCCCCCCCCC[C@@H](C[C@@H]1OC(=O)[C@H]1CCCCCC)OC(=O)[C@H](CC(C)C)NC=O` [XENICAL® (ORLISTAT), tetrahydrolipstatin, reference compound]: the “EPA incorporation in red blood cells” value in series [1] (rats fed fish oil with XENICAL (ORLISTAT) vs fish oil without, day 7) is given as “decreases EPA incorporation in red blood cells”.
